Data reported in patent US5571799A, “(2'-5') oligoadenylate analogues useful as inhibitors of host-v5.-graft response” (Basco, Ltd., priority 1994, dated 1996).
Entries after “also recorded” stand apart in the source; their conditions may differ. Marks after values point to notes of the source that are not given here.

How the values were obtained:
lymphocytes = experiment: Lymphocyte blast-transformation reaction in operated rabbits; assay type: in vivo, chinchilla rabbits
Description: Immunosuppression was performed by IV injection of (2'-5')A2 Ar-epoxy at a dose of 5 μg per 1.0 kg body weight at 0.1 ml of the physiologic solution daily until the conclusion of the experiment. During the first two weeks of the post-operative period, blood was taken for immunological analysis; BTR with PHA and Concanavalin A were tested.
Lymphocyte Blast-Transformation Reaction in Operated Rabbits

[1] = system: T-helper and T-killer cells; experiment: T-helper and T-killer cells in monkeys after kidney transplantation; assay type: in vivo, Macaque Rh. monkeys; conditions: 50 μg/kg IV every 48 hours; first two post-surgical weeks
Description: (§1) The experiments were performed on 4 year-old Macaque Rh. monkeys. Each cohort consisted of 3 animals. […] The results of the experiments were evaluated clinically: by the presence or absence of urination from the ureterocutaneostoma.
(§2) During our experiments we have divided monkeys into two groups, three monkeys to each group. For the first group (2'-5')A2 Ar-epoxy was administered intravenously at concentration of 50 μg/kg two days before the operation and at the second, sixth, and twelfth day after the operation and then every sixth day. […] After transplantation kidney functions were restored within 10 hours.
(§3) The administration schedule of (2'-5')A2 Ar-epoxy was modified slightly for the second group of monkeys. The preparation was injected two days before the operation and every other day at a concentration of 50 μg/kg during the entire post-transplantation period. […] The number of T-helpers dropped correspondingly from 37% to 7%. […] During the entire postoperative period, this activity tendency continues.

IgG, IgA, IgM = experiment: Immunoglobulins in monkeys after kidney transplantation; assay type: in vivo, Macaque Rh. monkeys; conditions: 50 μg/kg IV; for IgA: 2 days pre-op. 0.4; for IgM: 2 days pre-op. 0.8; for IgG: 2 days pre-op. 13
Description: Serum levels of IgG, IgA, IgM were determined by radial immunodiffusion using antisera against human immunoglobulin A, M, G. The amount of interferon and interleukine-II were determined by the method of Lopez-Botet M. et al., 1982.
as §1, §2

T-suppressors = experiment: Immune system of monkeys: T-suppressors, flow cytofluorografic analysis; assay type: in vivo, Macaque Rh. monkeys; conditions: for T-suppressor: single IV 25 μg/kg; for T-suppressors: single IV 50 μg/kg
Description: Immunosuppressive activity of the prototype 2'-5'A3 and two analogues (2'-5')A2 Ar-epoxy and (2'-5')A2 A^l-epoxy were investigated in monkeys. The experiments were performed on 4 year-old Macaque Rh. monkeys. The levels of the principal subpopulations of T-lymphocytes, IgA, IgG, IgM and the amount of α- and γ-interferon and interleukin II after administration (2'-5')olygoadenylate and its analogies at the concentration of 50 and 25 μg/kg of the body weight was investigated.
(§4) FLOW CYTOFLUOROGRAFIC ANALYSIS OF LYMPHOCYTE SUBSETS
(§5) Blood samples (100 μl of whole blood) were placed into a 12×17 tube. To these cells 20 μl of purified monoclonal antibodies were added with specificity for human cytotoxic/suppressor cells anti-Leu-2a (CD8), human helper/inducer anti-Leu-3a (CD4) and FITC conjugated monoclonal antibodies with specificity for natural killer cells-anti-Leu11c (CD16) (Becton Dickinson, San Jose). After 30 minutes incubation on ice, the cells were washed once and 20 μl of goat-antimouse chain phycoerythrin (Sigma P1286) conjugate were added to the tube with anti-Leu-2a and anti-Leu-3a monoclonal antibodies.
(§6) After erythrocyte lysing with FACS lysing solution (Becton Dickinson, San Jose) the cells were analyzed on FACScan flow cytometer (Becton Dickinson, San Jose) with scatter gate set on lymphocyte fraction.

T-helpers = T-helpers in monkeys after kidney transplantation; assay type: in vivo, Macaque Rh. monkeys; conditions: for T-helpers: 50 μg/kg IV, 2 days pre-op. 30
Description: as §4, §5, §6, §1
(§7) After intravenous anesthesia with Ketalar®, an extraperitoneal access to the left kidney was performed through layer by layer cuts to the left lumbar region. The kidney was excised from the surrounding tissues. A clamp was applied to the vessel limb; the artery, the vein and the ureter each were prepared for anastomosis separately. The kidney was excised and transferred for hypothermal conservation in Collins' solution.
(§8) The donor kidney was transplanted into the recipient. […] anastomosis was performed: the graft arteries and veins attached to the appropriate recipient kidney vessels through plastic tubes. The kidney having been resuscitated by in blood flow, acquired the normal color and turgor. Additional hemostasis in the wound was performed. Ureterocutaneostomy was performed, which was followed by applying layer-upon-layer sutures on the wound and its aseptic dressing.
(§9) The monkeys were narcotized by means of the intravenous anesthesia with Ketalar® and subjected to medial laparotomy from the xiphoid down to the pubic joint. Access to the left Kidney was made extraperitoneally. The kidney was teased from the surrounding tissues. A clamp was put on the vessel limb; the artery, the vein and the ureter were dressed separately; the kidney was cut and transferred for hypothermal conservation in Collins' solution.
The internal iliac artery and the external iliac vein were extracted extra-peritoneally, immobilized and prepared for anastomosis. The donor kidney was transferred to the recipient. Vessel anastomosis was performed: the graft arteries were anastomosed with the internal iliac artery according to the end-to-end method and the graft veins were anastomosed with the external iliac vein according to the end-to-side method. The kidney having been engaged in blood flow, acquired a normal color and turgor. Bleeding on the line of the arterial anastomosis was stopped by making additional sutures. Ureterocutaneostomy was performed. The abdominal cavity was lavaged with the solution of disodium carbenicillin. Layer-upon-layer sutures on the wound were applied. Aseptic dressing was performed.
as §2, §3

transplanted kidney = experiment: Kidney cross-allotransplantation in monkeys: graft function; assay type: in vivo, Macaque Rh. monkeys
Description: as §1, §7, §8, §9
The internal iliac artery and the external iliac vein were extracted extra-peritoneally, immobilized and prepared for anastomosis. The donor kidney was transferred to the recipient. Vessel anastomosis was performed: the graft arteries were anastomosed with the internal iliac artery according to the end-to-end method and the graft veins were anastomosed with the external iliac vein according to the end-to-side method. The kidney having been engaged in blood flow, acquired a normal color and turgor. […]

## Adenylyl (2'-5')adenylyl (2'-5')-9-(2,3-anhydro-β-D-ribofuranosyl) adenine disodium salt [(2'-5')A2 Ar-epoxy]
lymphocytes; Con A, Group 1, 2 weeks post-op., pre-op. 12.6
  DNA synthesis by [^3 H]-thymidine incorporated: 1.6 cpm(×10^3)
lymphocytes; Con A, Group 1, 48 h. post-op., pre-op. 12.6
  DNA synthesis by [^3 H]-thymidine incorporated: 1.6 cpm(×10^3)
lymphocytes; Con A, Group 2, 2 weeks post-op., pre-op. 11.0
  DNA synthesis by [^3 H]-thymidine incorporated: 5.0 cpm(×10^3)
lymphocytes; Con A, Group 2, 48 h. post-op., pre-op. 11.0
  DNA synthesis by [^3 H]-thymidine incorporated: 4.4 cpm(×10^3)
lymphocytes; PHA 10, Group 1, 2 weeks post-op., pre-op. 6.0
  DNA synthesis by [^3 H]-thymidine incorporated: 1.5 cpm(×10^3)
lymphocytes; PHA 10, Group 1, 48 h. post-op., pre-op. 6.0
  DNA synthesis by [^3 H]-thymidine incorporated: 0.9 cpm(×10^3)
lymphocytes; PHA 10, Group 2, 2 weeks post-op., pre-op. 7.0
  DNA synthesis by [^3 H]-thymidine incorporated: 2.1 cpm(×10^3)
lymphocytes; PHA 10, Group 2, 48 h. post-op., pre-op. 7.0
  DNA synthesis by [^3 H]-thymidine incorporated: 2.4 cpm(×10^3)
lymphocytes; PHA 20, Group 1, 2 weeks post-op., pre-op. 2.1
  DNA synthesis by [^3 H]-thymidine incorporated: 1.6 cpm(×10^3)
lymphocytes; PHA 20, Group 1, 48 h. post-op., pre-op. 2.1
  DNA synthesis by [^3 H]-thymidine incorporated: 1.2 cpm(×10^3)
lymphocytes; PHA 20, Group 2, 48 h. post-op., pre-op. 1.4
  DNA synthesis by [^3 H]-thymidine incorporated: 5.5 cpm(×10^3)
lymphocytes; Spontaneous, Group 1, 48 h. post-op., pre-op. 0.648
  DNA synthesis by [^3 H]-thymidine incorporated: 0.306 cpm(×10^3)
lymphocytes; Spontaneous, Group 2, 48 h. post-op., pre-op. 0.597
  DNA synthesis by [^3 H]-thymidine incorporated: 0.274 cpm(×10^3)
lymphocytes; post-transplanted rabbits, IV 5 μg/kg
  suppression of lymphocyte blast-transformation stimulated with Con A: ~10 fold
lymphocytes; two weeks following the operation
  lymphocyte blast-transformation reaction, in words: inhibition of the lymphocyte blast-transformation reaction
[1]
  retained level of T-helper and T-killer cells relative to normal value: 30%
IgG, IgA, IgM; day 5 post-op.
  IgA: 2.07 g/L
  IgM: 0.75 g/L
  IgG: 12.2 g/L
IgG, IgA, IgM; day 8 post-op.
  IgA: 2.5 g/L
  IgM: 0.86 g/L
  IgG: 12.75 g/L
T-suppressors; 25 and 50 μg/kg IV
  effect on T-suppressors, in words: suppresses the number of T-suppressor cells
T-suppressors; day 0 (baseline)
  T-suppressor: 47%
  T-suppressors: 43%
T-suppressors; day 1
  T-suppressor: 40%
  T-suppressors: 31%
T-suppressors; day 2
  T-suppressor: 21%
  T-suppressors: 19%
T-suppressors; day 4
  T-suppressor: 11%
  T-suppressors: 12%
T-suppressors; day 8
  T-suppressor: 11%
  T-suppressors: 7.4%
T-suppressors; day 12
  T-suppressor: 14%
  T-suppressors: 13%
T-suppressors; day 21
  T-suppressor: 46%
  T-suppressors: 44%
T-helpers; day 1 post-op.
  T-helpers: 8%
T-helpers; day 5 post-op.
  T-helpers: 39.9%
T-helpers; day 8 post-op.
  T-helpers: 32%
T-helpers; day 13 post-op.
  T-helpers: 34.7%
T-helpers; day 18 post-op.
  T-helpers: 14.5%
T-helpers; second group, 50 μg/kg every other day, 7 days after surgery, from 37%
  number of T-helpers: 7%
Transplanted kidney; 50 μg/kg IV, disodium salt
  prevention of transplant rejection / kidney function, in words: protects the transplant from rejection, and renews normal functioning of the transplanted kidney; also recorded: transplanted kidney resumes and maintains its normal functions; also recorded: effectively prevent the rejection
Transplanted kidney; first group: 50 μg/kg IV 2 days pre-op., days 2, 6, 12, then every sixth day
  time to restoration of kidney function after transplantation: ≤ 10 h
Transplanted kidney; second group: 50 μg/kg 2 days pre-op. and every other day
  time to restoration of kidney function after transplantation: ≤ 10 h
